Reference: US20050148495A1, “Methods and materials including for treating acne” (priority 2003, published 2005)
Non-standard residues stand in square brackets, D forms with d. Residues, ends and D or L forms follow the SMILES beside them. d1Nal = N[C@H](Cc1cccc2ccccc12)C(=O)O

Tests used:
[1] = Additional studies: intravenous administration safety; type: in vivo; details: intravenously
Method: In additional studies in an acute peritonitis model, mice were challenged intraperitoneally with 1.4×10^7 CFU E. coli 07:K1 and treated intraperitoneally with XMP.629 at 1, 3, or 10 mg/kg or saline. Mice were observed twice daily and mortality was recorded for seven days. Statistical comparisons between the treatment groups and saline were performed using a Chi Square test. […] At 10 mg/kg, 87% protection was observed. In additional studies, XMP.629 was safely administered at a dose of 20 mg/kg intravenously.

Macrococcus caseolyticus = Macrococcus caseolyticus 29750
Streptococcus mutans = assay: MIC, panel of human pathogens, standardized NCCLS protocols; type: cell-based; details: Streptococcus mutans 25175
[2] = tested on: P. acnes strain ATCC 6919; assay: Kill curves / kill kinetics; type: cell-based, Propionibacterium acnes
Method: Kill curves were generated by incubating P. acnes strain ATCC 6919 with formulation buffer solutions of XMP.629 or other antibiotics at concentrations of […]. Samples were removed and plated at the indicated time periods. After incubation, colonies were counted and the kill kinetics determined for each drug.
For example, at a higher concentration of 4 μg/mL, a rapid reduction of viable cells in 8 hours to undetectable levels was observed. […] In additional kill curve studies against P. acnes, XMP.629 was bactericidal within 6 hours of exposure.

[3] = tested on: Salmonella typhimurium TA98, TA100, TA1535, TA1537 and Escherichia coli WP2uvrA; assay: Ames test: Salmonella-Escherichia coli/mammalian-microsome reverse mutation assay; type: cell-based; details: with and without S9
Method: XMP.629 was evaluated in an initial mutagenicity assay. In this Salmonella-Escherchia coli/mammalian-microsome reverse mutation assay, XMP.629 was evaluated for the ability to induce reverse mutations at the histidine locus in four tester strains of Salmonella-typhimurium (TA98, TA100, TA1535 and TA1537) and at the tryptophan locus in Escherichia coli tester strain, WP2uvrA, in the presence or absence of an exogenous metabolic activation system ([…]). The experimental materials, methods and procedures were based on those described by Ames et al., 1975 (Mutat. Res. 31; 347-364) and Green and Muriel, 1976 (Mutat. Res. 38: 3-32). The assay design was based on the OECD Guideline 471, updated and adopted Jul. 21, 1997. Based on the results of an initial dose rangefinding study, XMP.629 was evaluated using (a) four standard Salmonella tester strains with the rat hepatic S9 (microsomal) fraction at doses of 1.00, 3.33, 10.0, 33.3, 66.7 and 100 μg/plate, and without S9 at doses of 1.00, 3.33, 10.0, 25.0, 33.3 and 66.7 μg/plate; and (b) tester strain WP2uvrA with S9 at doses of 3.33, 10.0, 33.3, 100, 250 and 333 μg/plate and without S9 at doses of 1.00, 3.33, 10.0, 33.3, 66.7 and 100 μg/plate. XMP.629 was re-evaluated in an independent confirmatory experiment under similar conditions at lower doses.
In addition, the test article was freely soluble at all doses evaluated with and without S9. […]

## CC(C)C[C@@H](NC(=O)[C@H](N)CCCCN)C(=O)N[C@H](Cc1ccccc1)C(=O)N[C@H](CCCNC(=N)N)C(=O)N[C@H](Cc1cccc2ccccc12)C(=O)N[C@H](CCC(N)=O)C(=O)N[C@H](C)C(=O)N[C@H](CCCCN)C(=O)N[C@H](Cc1cccc2ccccc12)C(N)=O [XMP.629, NH2-lys-leu-phe-arg-(3-(1-naphthyl)-ala)-gln-ala-lys-(3-(1-naphthyl)-ala)-CONH2] (H-[dK][dL][dF][dR][d1Nal][dQ][dA][dK][d1Nal]-NH2)
[1]
  dose safely administered: 20 mg/kg
Macrococcus caseolyticus
  Minimum Inhibitory Concentrations: 2.00 µg/mL
Streptococcus mutans
  Minimum Inhibitory Concentrations: ≦1 μg/mL
[2]; 4 μg/mL
  time to reduction of viable cells to undetectable levels: 8 h
[2]; additional kill curve studies against P. acnes
  exposure time until bactericidal: ≤ 6 h
[2]; all concentrations tested
  culture at 19 hours: no detected organisms
[2]; depending on dose
  contact time to kill the microorganisms: up to 10 hours
[3]
  reverse mutation assay result: negative
